Data on 3 compounds can be found in patent US5332731A, “Cephalosporin derivatives” (Meiji Seika Kaisha, Ltd., priority 1989, dated 1994).

Common to all, as to assay: antibacterial activity, MIC by standard serial dilution method
What all share (assay type): cell-based

In test [1] the test system is Citrobacter freundii GN346/16. An excerpt: (§1) Antibacterial activity of Compounds Nos. 1, 3, 5, 7, 9, 11, 13, 15, 17, 19, 21, 23, 25, 27, 29, 31, 33, 35 and 37 indentified hereinbefore which are the particular examples of the new cephalosporin derivative of general formula (I) according to this invention and which are in the form of the free carboxylic acid was estimated by determining the minimum inhibitory concentrations (MIC., μg/ml) of these compounds against a variety of bacteria according to a standard serial dilution method.

Test [2] has as its system Citrobacter freundii GN346.
Description: as §1

In test [3] the test system is Enterobacter cloacae G-0008. The following applies: G0008.
Description: as §1

Test [4] concerns Enterobacter cloacae GN7471.
Description: as §1

For test [5], the system named is Enterobacter hirae ATCC8043.
Description: as §1

Test [6] has as its system Entrobacter faecalis W-73.
Description: as §1

In the next test the test system is Escherichia coli 255/S-1. The following applies: 255/S1.
Description: as §1

The subject of the next test is Escherichia coli 255.
Description: as §1

A further test deals with Escherichia coli GN206.
Description: as §1

In test [7] the test system is Escherichia coli NIHJ JC-2. The following applies: NIHJJC2.
Description: as §1

The test system of test [8] is Escherichia coli W3630 RGN823. The following applies: W3630RGN823.
Description: as §1

Test [9] relates to Klebsiella pneumoniae GN69.
Description: as §1

Test [10] has as its system Klebsiella pneumoniae PCI602.
Description: as §1

Test [11] deals with Marganella morganii 1510/S-1.
Description: as §1

The test system of another test is Marganella morganii 1510.
Description: as §1

Test [12] has as its system Proteus vulgaris GN76/C-1.
Description: as §1

Another test concerns Proteus vulgaris GN76.
Description: as §1

The test system of test [13] is Pseudomonas aeruginosa GN10362.
Description: as §1

Test [14] relates to Serratia marcescens GN10857.
Description: as §1

Test [15] relates to Serratia marcescens No. 1.
Description: as §1

In test [16] the test system is Staphylococcus aureus 209P JC-1.
Description: as §1

Test [17] relates to Staphylococcus epidermidis ATCC14990.
Description: as §1

≈ marks a conversion by molar mass, not a printed value.

As to `Nc1nc(/C(=N/O)C(=O)NC2C(=O)N3C(C(=O)O)=C(SC4CCOCC4)CS[C@H]23)cs1` (stereo partly drawn) [Compound No. 15, 7-[(Z)-2-(2-aminothiazol-4-yl) -2-hydroxyiminoacetamido]-3-(tetrahydropyran-4-yl)thio-3-cephem-4-carboxylic acid], the MIC was 6.25 µg/mL (≈ 12.9 µM) in [1]; more than 100 µg/mL in test [2]; 1.56 µg/mL (≈ 3.21 µM) in test [3]; 100 µg/mL (≈ 206 µM) in [4]; 6.25 µg/mL (≈ 12.9 µM) in [5]; 1.56 µg/mL (≈ 3.21 µM) in test [6]. Also, the MIC in the test on Escherichia coli 255/S-1 amounted to 0.39 µg/mL (≈ 0.803 µM); against Escherichia coli 255, 50 µg/mL (≈ 103 µM); with Escherichia coli GN206 it was 12.5 µg/mL (≈ 25.7 µM); in [7], 0.78 µg/mL (≈ 1.61 µM); in [8] it was 12.5 µg/mL (≈ 25.7 µM); in test [9] it was 0.78 µg/mL (≈ 1.61 µM). Further, the MIC in test [10] was 0.39 µg/mL (≈ 0.803 µM); in test [11] it was 0.2 µg/mL (≈ 0.412 µM); in the test with Marganella morganii 1510, 50 µg/mL (≈ 103 µM); in test [12], 6.25 µg/mL (≈ 12.9 µM); in the test with Proteus vulgaris GN76, 1.56 µg/mL (≈ 3.21 µM); in test [13] it was more than 100 µg/mL. Also, the MIC in test [14] is more than 100 µg/mL; in [15], 6.25 µg/mL (≈ 12.9 µM); in [16], 0.2 µg/mL (≈ 0.412 µM); in test [17], 0.2 µg/mL (≈ 0.412 µM).
In the case of `CC1(C)OCCC(CSC2=C(C(=O)O)N3C(=O)C(NC(=O)/C(=N\O)c4csc(N)n4)[C@H]3SC2)O1` (stereo partly drawn) [Compound No. 17, 7 - [(Z)-2-(2-aminothiazol-4-yl) -2-hydroxyiminoacetamido]-3-(2,2-dimethyl-1,3-dioxan-4-yl)methylthio-3-cephem-4-carboxylic acid], the MIC was 12.5 µg/mL (≈ 23.6 µM) in [1]; more than 100 µg/mL in [2]; 12.5 µg/mL (≈ 23.6 µM) in [3]; more than 100 µg/mL in test [4]; 25 µg/mL (≈ 47.2 µM) in test [5]; 6.25 µg/mL (≈ 11.8 µM) in test [6]. Besides, the MIC was 6.25 µg/mL (≈ 11.8 µM) in the test on Escherichia coli 255/S-1; 100 µg/mL (≈ 189 µM) in the test with Escherichia coli 255; 25 µg/mL (≈ 47.2 µM) against Escherichia coli GN206; 6.25 µg/mL (≈ 11.8 µM) in test [7]; 6.25 µg/mL (≈ 11.8 µM) in [8]; 3.13 µg/mL (≈ 5.91 µM) in test [9]. In addition, the MIC in [10] was 6.25 µg/mL (≈ 11.8 µM); in test [11] it was 3.13 µg/mL (≈ 5.91 µM); in the test with Marganella morganii 1510, more than 100 µg/mL; in test [12] it was 25 µg/mL (≈ 47.2 µM); with Proteus vulgaris GN76 it was 3.13 µg/mL (≈ 5.91 µM); in [13], more than 100 µg/mL. Besides, the MIC is more than 100 µg/mL in test [14], 12.5 µg/mL (≈ 23.6 µM) in [15], 0.78 µg/mL (≈ 1.47 µM) in test [16] and 0.39 µg/mL (≈ 0.736 µM) in test [17].
For the compound `CO/N=C(\C(=O)NC1C(=O)N2C(C(=O)O)=C(SC3COCOC3)CSC12)c1csc(N)n1` (stereo not drawn) [Compound No. 19], the MIC in test [1] was 3.13 µg/mL (≈ 6.24 µM); in [2], more than 100 µg/mL; in test [3], 0.39 µg/mL (≈ 0.778 µM); in test [4] it was 50 µg/mL (≈ 99.7 µM); in test [5] it was 25 µg/mL (≈ 49.8 µM); in test [6], 100 µg/mL (≈ 199 µM). For the same compound, the MIC in the test on Escherichia coli 255/S-1 is 0.39 µg/mL (≈ 0.778 µM); against Escherichia coli 255, 25 µg/mL (≈ 49.8 µM); against Escherichia coli GN206 it was 3.13 µg/mL (≈ 6.24 µM); in test [7] it was 0.39 µg/mL (≈ 0.778 µM); in test [8], 0.78 µg/mL (≈ 1.56 µM); in test [9] it was 0.2 µg/mL (≈ 0.399 µM). Also, the MIC in test [10] is less than 0.025 µg/mL; in test [11], 0.1 µg/mL (≈ 0.199 µM); in the test on Marganella morganii 1510, 12.5 µg/mL (≈ 24.9 µM); in test [12], 1.56 µg/mL (≈ 3.11 µM); with Proteus vulgaris GN76, 0.05 µg/mL (≈ 0.0997 µM); in test [13] it was more than 100 µg/mL. Further, the MIC stood at 50 µg/mL (≈ 99.7 µM) in [14], 0.78 µg/mL (≈ 1.56 µM) in [15], 0.39 µg/mL (≈ 0.778 µM) in test [16] and 0.78 µg/mL (≈ 1.56 µM) in test [17].

For orientation: MIC means the lowest concentration that inhibits growth of the organism. A lower MIC goes with greater potency.
